Test system: Aβ in H1299 cell-conditioned media
Experiment: ELISA, oligomer versus total Aβ in H1299 cell-conditioned media
Type: cell-based, human
Settings: Fig. 8B
Description: Aβ ELISAs were carried out according to previous protocols for determining the oligomeric and monomeric concentrations of Aβ and as we recently reported. Briefly, total Aβ (monomers + oligomers) was measured by two‐site binding ELISAs using the capture 6E10 monoclonal antibody and 4G8‐conjugated biotin as the detection antibody, which recognizes a distinct epitope, then quantitated using streptavidin‐HRP.
Using the same samples, oligomerized Aβ was measured by a single‐site ELISA in which antibodies targeting the same primary sequence epitope were used for both capture (4G8) and detection (4G8‐biotin). Only oligomers are detected with this approach since the 4G8‐biotin antibody cannot bind to the captured monomer because the epitope is blocked by the 4G8 capture antibody. Therefore, only oligomeric or multimeric Aβ containing additional exposed 4G8 epitopes, not engaged by the capture antibody, are reported by the streptavidin–HRP. The amount of the monomer was then estimated as the difference between the concentration of total Aβ and the concentration of the oligomer.
Conditioned media were immunodepleted (ID) according to the methods previously described and our recently published report. Briefly, specific antibodies were bound to ELISA wells overnight (1 : 1000 dilution). The wells were then blocked and washed, then 300 μL of the conditioned medium (0.5 μg·μL^−1) treated as indicated, 72 h postserum starvation, was incubated with the antibodies bound to ELISA wells for 24 h. The ID media were then carefully removed and analyzed for the presence of the target protein or peptide by ELISA. The same amount of protein (3 µL of 600 µg·mL^−1 total protein) of each sample was analyzed in the experiments. Significant depletion (95–100%) was observed upon using each of the antibodies employed in this study.
Both epitopes recognized by the 6E10 and 4G8 antibodies have been previously shown to be exposed in Aβ aggregates. […] To determine the effect of ID of AChE or HN on this ratio in the absence or presence of added ATP, 0.2 × 10^5 cells per well were seeded in 96‐well plates in 10% FBS‐supplemented media. The next day, the cells were incubated in serum‐free medium for 72 h, then ID of AChE or HN as described in Materials and methods. The antibodies 6E10 or 4G8 were bound (1 : 1000 dilution) to ELISA wells (Fig. 8). The wells were blocked, and then incubated with 300 μL of the ID medium (0.5 μg·μL^−1). Biotin‐4G8 was then added and the signal processed as described in Materials and methods section. Fold change relative to controls using anti‐6E10 or anti‐4G8 antibodies incubated with 300 μL of the medium not incubated with cells was calculated.
Cells (0.2 × 10^5) were grown in 10% FBS‐supplemented media for 24 h. The cells were then incubated in serum‐free medium for 72 h without or with ATP and the media collected and ID from either HN or AChE as described in Materials and methods section. The antibodies 6E10 or 4G8 were bound (1 : 1000 dilution) to ELISA wells. The wells were blocked, and then incubated with 300 μL of the control and ID medium (0.5 μg·μL^−1). Biotin‐4G8 was then added and the signal processed as described in Materials and methods section. Fold change relative to controls using anti‐6E10 and anti‐4G8 antibodies and 300 μL of the medium not incubated with cells was calculated. Data were processed using the […] 8.4.3 software. The graphs summarize the results expressed as means ± SD of three separate experiments, each performed in triplicate. […]

| Compound | oligomer, % of total Aβ remaining after HN ID (HN-immunodepleted H1299 media (non-depleted ~ 48%)) | total Aβ remaining after HN ID (HN-immunodepleted H1299 media) | effect of ATP on relative amount of oligomer versus total Aβ (HN-immunodepleted H1299 media, three experiments in triplicate) | effect of ATP on relative amount of oligomer versus total Aβ (non-depleted, HN-ID or AChE-ID media) |
| --- | --- | --- | --- | --- |
| Humanin [HN] | ~ 69% | ~ 58% | – | – |
| Nc1ncnc2c1ncn2[C@@H]1O[C@H](COP(=O)(O)OP(=O)(O)OP(=O)(O)O)[C@@H](O)[C@H]1O [ATP, Adenosine triphosphate] | – | – | does not affect | lack of effect |
